In US11648253B2, “Thienopyrimidinone NMDA receptor modulators and uses thereof” (Novartis AG, priority 2015, dated 2023):

Molecular target: T1, NMDA receptor (GRIN1 / GRIN2B, NR2B) expressed in HEK293 cells (Homo sapiens, UniProt Q05586+Q13224)
T1 construct: host or cells: HEK293
Assay: Reversal of Ro 25-6981-mediated suppression of Ca2+ response (fluo-8 fluorescence, FDSS) in HEK293 cells expressing GRIN1/GRIN2B
Format: cell-based
Details: % reversal of Ro 25-6981 suppression of co-agonist (glutamate/glycine) Ca2+ response, test concentration not given
Method: HEK293 cells with constructs conferring stable expression of the GRIN1 gene and tetracycline-inducible expression of the GRIN2B gene (Chantest, Cleveland, Ohio) are grown to ˜75% confluence in tissue culture flasks at 37° C., 5% CO2. NR2B expression is induced by overnight incubation with 0.3-0.4 μg/ml tetracycline in the presence of 2.5 mM ARL-15896 at 37° C., followed by moving to 30° C. for 3-5 hours. Cells are next harvested using TripleExpressm (Life Technologies, Carlsbad, Calif.) according to the manufacturer's instructions, first removing culture medium, rinsing with Dulbecco's phosphate buffered saline (Ca^2+ and Mg^2+-free), and then adding the TripleExpressm reagent. Harvested cells are spun down, washed twice in Ca^2+- and Mg^2+-free Hank's Balanced Salt Solution with 20 mM HEPES and 10 mM glucose, pH 7.4 (HHnoCa solution), and counted with viability assessed using Trypan Blue. Cells are loaded with fluo-8 Ca^2+-sensitive dye in HHnoCa solution according to the manufacturer's directions (AAT Bioquest, Sunnyvale, Calif.), incubating at 37° C. for 20 minutes followed by 25 minutes at 22-25° C. After a wash in HHnoCa to remove extracellular dye, cells are resuspended in HHnoCa and plated at […] cells per well in a volume of 25 μl/well in 384 well black-wall, clear bottom plates (Hamamatsu, Middlesex, N.J.). Plates are then centrifuged to create a monolayer in the wells and stored in the dark until used.
Prior to analysis, compound plates are prepared with each compound at 6× the final desired concentration. From stock solutions at 10 mM in 100% DMSO, compounds are spotted in the desired amounts using an ECHO liquid handler (Labcyte, Sunnyvale, Calif.) into wells of a 384-well plate and then diluted with 50 μl of HHnoCa containing 750 nM Ro 25-6981 and 120 μM 5,7-dichlorokynurenic acid (both purchased from Tocris Bioscience (Bristol, England) and maintained as 10 mM stock solutions in 100% DMSO). To insure complete compound dissolution, these plates are then placed in an orbital shaker for at least one hour. Also prepared prior to the assay is a co-agonist plate containing HHnoCa with 240 μM glutamate, 2.4 mM glycine, and 7.2 mM CaCl2, which is 2.4× the desired final concentration of each reagent. Both the compound plate and co-agonist plate are 384-well polypropylene plates from Thermo Fisher Scientific, Waltham, Mass.
The assay is performed by first adding 10 μl solution from each well of the compound plate described above to the cell plate using a CyBiWell liquid handler (Analytik Jena AG, Jena, Germany), followed by 10 minutes pre-incubation in the dark. Cell plates are then loaded onto a Hamamatsu FDSS 6000 plate reader. After a 30-second baseline, 25 μl is added to each well from the co-agonist plate, and the fluorescence signal is recorded for another 2 minutes. FDSS software applies shading and autofluorescence correction, and resultant raw fluorescence measurements are exported in the form of a fluorescence ratio for each well to its own reading at time zero in the experiment. In each plate, negative control wells consist of wells where Ro 25-6981 and 5,7 dichlorokynurenic acid are present and co-agonist is applied in the absence of any added assay compound. Under these conditions, the Ca^2+ response to co-agonist is suppressed. Positive control wells also present in each plate contain 5,7 dichlorokynurenic acid but no Ro 25-6981, so that co-agonist addition results in a large Ca^2+ response. Compounds tested are evaluated on the basis of their ability to reverse the suppression of the Ca^2+ response mediated by Ro 25-6981, which is quantified as % reversal=100*(R−Rneg)/(Rpos−Rneg) where R is the fluorescence ratio for the test compound at the end of the experiment and Rneg and Rpos are the end ratios for the negative and positive controls, respectively. […]

T1 sequence (Q13224 27-1484, other chains not shown): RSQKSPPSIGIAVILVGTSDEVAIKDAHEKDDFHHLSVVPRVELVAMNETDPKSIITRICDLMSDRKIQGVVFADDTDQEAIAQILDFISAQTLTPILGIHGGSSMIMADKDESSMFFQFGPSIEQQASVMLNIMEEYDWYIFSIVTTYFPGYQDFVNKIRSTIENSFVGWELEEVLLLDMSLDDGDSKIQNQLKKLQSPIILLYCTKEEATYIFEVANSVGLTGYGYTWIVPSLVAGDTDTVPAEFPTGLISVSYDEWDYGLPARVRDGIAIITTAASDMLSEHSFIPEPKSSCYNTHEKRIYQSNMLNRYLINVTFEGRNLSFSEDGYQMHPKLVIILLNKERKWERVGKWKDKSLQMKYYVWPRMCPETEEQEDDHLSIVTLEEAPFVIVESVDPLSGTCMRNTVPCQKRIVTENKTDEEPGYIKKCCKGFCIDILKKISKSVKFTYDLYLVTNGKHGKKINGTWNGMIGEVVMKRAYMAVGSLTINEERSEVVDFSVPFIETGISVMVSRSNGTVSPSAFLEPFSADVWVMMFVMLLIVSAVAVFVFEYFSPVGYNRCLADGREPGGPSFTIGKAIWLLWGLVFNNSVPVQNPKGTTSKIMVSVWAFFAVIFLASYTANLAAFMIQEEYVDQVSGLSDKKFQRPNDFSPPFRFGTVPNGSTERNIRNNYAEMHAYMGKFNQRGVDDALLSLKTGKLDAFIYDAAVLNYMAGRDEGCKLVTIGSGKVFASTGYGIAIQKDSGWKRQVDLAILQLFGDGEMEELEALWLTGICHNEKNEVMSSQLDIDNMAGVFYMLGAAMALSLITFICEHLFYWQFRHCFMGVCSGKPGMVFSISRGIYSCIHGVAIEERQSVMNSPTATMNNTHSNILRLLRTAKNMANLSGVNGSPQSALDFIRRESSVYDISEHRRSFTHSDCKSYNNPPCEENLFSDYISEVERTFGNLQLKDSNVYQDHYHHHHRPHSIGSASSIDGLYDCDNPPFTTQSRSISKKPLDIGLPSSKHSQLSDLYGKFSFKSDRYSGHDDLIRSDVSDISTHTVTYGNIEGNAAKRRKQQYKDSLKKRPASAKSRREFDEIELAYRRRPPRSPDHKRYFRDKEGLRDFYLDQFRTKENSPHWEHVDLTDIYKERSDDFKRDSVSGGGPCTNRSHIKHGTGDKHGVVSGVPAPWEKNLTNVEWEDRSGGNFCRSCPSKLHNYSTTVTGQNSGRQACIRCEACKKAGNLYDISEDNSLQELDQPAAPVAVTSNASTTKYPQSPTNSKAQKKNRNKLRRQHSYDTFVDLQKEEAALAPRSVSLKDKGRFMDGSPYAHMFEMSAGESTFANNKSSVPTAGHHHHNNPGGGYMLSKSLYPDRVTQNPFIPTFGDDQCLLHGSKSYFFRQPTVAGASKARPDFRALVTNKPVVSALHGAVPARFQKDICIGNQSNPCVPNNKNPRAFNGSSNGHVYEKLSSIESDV

Row | Structure (SMILES) | Avg Response Recovered (%)
1 | O=C(Cn1cnc2scc(-c3ccc(Cl)cc3)c2c1=O)N1CCC1 [Example 1, 3-[2-(azetidin-1-yl)-2-oxoethyl]-5-(4-chlorophenyl)-3H,4H-thieno[2,3-d]pyrimidin-4-one] | 2%
2 | O=C(Cn1cnc2scc(-c3ccc(Cl)cc3)c2c1=O)N1CC(F)(F)C1 [Example 2, 5-(4-chlorophenyl)-3-[2-(3,3-difluoroazetidin-1-yl)-2-oxoethyl]-3H,4H-thieno[2,3-d]pyrimidin-4-one] | 7%
3 | O=C(Cn1cnc2scc(-c3ccc(Cl)cc3)c2c1=O)N1CC2(COC2)C1 [Example 3, 5-(4-chlorophenyl)-3-(2-{2-oxa-6-azaspiro[3.3]heptan-6-yl}-2-oxoethyl)-3H,4H-thieno[2,3-d]pyrimidin-4-one] | 0%
4 | COC1CN(C(=O)Cn2cnc3scc(-c4ccc(Cl)cc4)c3c2=O)C1 [Example 4, 5-(4-chlorophenyl)-3-[2-(3-methoxyazetidin-1-yl)-2-oxoethyl]-3H,4H-thieno[2,3-d]pyrimidin-4-one] | 1%
5 | O=C(Cn1cnc2scc(-c3ccc(C(F)(F)F)cc3)c2c1=O)N1CC(F)(F)C1 [Example 5, 3-[2-(3,3-difluoroazetidin-1-yl)-2-oxoethyl]-5-[4-(trifluoromethyl)phenyl]-3H,4H-thieno[2,3-d]pyrimidin-4-one] | 11%
6 | O=C(Cn1cnc2scc(-c3ccc(Cl)c(C(F)(F)F)c3)c2c1=O)N1CC(F)(F)C1 [Example 6, 5-[4-chloro-3-(trifluoromethyl)phenyl]-3-[2-(3,3-difluoroazetidin-1-yl)-2-oxoethyl]-3H,4H-thieno[2,3-d]pyrimidin-4-one] | 62%
7 | O=C(Cn1cnc2scc(-c3ccc(F)cc3)c2c1=O)N1CC(F)(F)C1 [Example 7, 3-[2-(3,3-difluoroazetidin-1-yl)-2-oxoethyl]-5-(4-fluorophenyl)-3H,4H-thieno[2,3-d]pyrimidin-4-one] | 6%
8 | Cc1ccc(-c2csc3ncn(CC(=O)N4CC(F)(F)C4)c(=O)c23)cc1 [Example 8, 3-[2-(3,3-difluoroazetidin-1-yl)-2-oxoethyl]-5-(4-methylphenyl)-3H,4H-thieno[2,3-d]pyrimidin-4-one] | 5%
9 | O=C(Cn1cnc2scc(-c3ccc(F)c(Cl)c3)c2c1=O)N1CC(F)(F)C1 [Example 9, 5-(3-chloro-4-fluorophenyl)-3-[2-(3,3-difluoroazetidin-1-yl)-2-oxoethyl]-3H,4H-thieno[2,3-d]pyrimidin-4-one] | 49%
10 | O=C(Cn1cnc2scc(-c3ccc(Cl)c(Cl)c3)c2c1=O)N1CC(F)(CF)C1 [Example 10, 5-(3,4-dichlorophenyl)-3-{2-[3-fluoro-3-(fluoromethyl)azetidin-1-yl]-2-oxoethyl}-3H,4H-thieno[2,3-d]pyrimidin-4-one] | 121%
11 | CC1(F)CN(C(=O)Cn2cnc3scc(-c4ccc(Cl)c(Cl)c4)c3c2=O)C1 [Example 11, 5-(3,4-dichlorophenyl)-3-[2-(3-fluoro-3-methylazetidin-1-yl)-2-oxoethyl]-3H,4H-thieno[2,3-d]pyrimidin-4-one] | 152%
12 | CCC1(F)CN(C(=O)Cn2cnc3scc(-c4ccc(F)c(Cl)c4)c3c2=O)C1 [Example 12, 5-(3-chloro-4-fluorophenyl)-3-[2-(3-ethyl-3-fluoroazetidin-1-yl)-2-oxoethyl]-3H,4H-thieno[2,3-d]pyrimidin-4-one] | 149%
13 | O=C(Cn1cnc2scc(-c3ccc(F)c(Cl)c3)c2c1=O)N1CC(F)(CF)C1 [Example 13, 5-(3-chloro-4-fluorophenyl)-3-{2-[3-fluoro-3-(fluoromethyl)azetidin-1-yl]-2-oxoethyl}-3H,4H-thieno[2,3-d]pyrimidin-4-one] | 141%
14 | CC1(F)CN(C(=O)Cn2cnc3scc(-c4ccc(F)c(Cl)c4)c3c2=O)C1 [Example 14, 5-(3-chloro-4-fluorophenyl)-3-[2-(3-fluoro-3-methylazetidin-1-yl)-2-oxoethyl]-3H,4H-thieno[2,3-d]pyrimidin-4-one] | 165%
15 | CCC1(F)CN(C(=O)Cn2cnc3scc(-c4ccc(Cl)c(Cl)c4)c3c2=O)C1 [Example 15, 5-(3,4-dichlorophenyl)-3-[2-(3-ethyl-3-fluoroazetidin-1-yl)-2-oxoethyl]-3H,4H-thieno[2,3-d]pyrimidin-4-one] | 103%
16 | O=C(Cn1cnc2sc(-c3ccc(Cl)cc3)cc2c1=O)N1CCC1 [Example 16, 3-[2-(azetidin-1-yl)-2-oxoethyl]-6-(4-chlorophenyl)-3H,4H-thieno[2,3-d]pyrimidin-4-one] | 23%
17 | COC1CN(C(=O)Cn2cnc3sc(-c4ccc(Cl)cc4)cc3c2=O)C1 [Example 17, 6-(4-chlorophenyl)-3-[2-(3-methoxyazetidin-1-yl)-2-oxoethyl]-3H,4H-thieno[2,3-d]pyrimidin-4-one] | 24%
18 | Cc1sc2ncn(CC(=O)N3CC(F)(F)C3)c(=O)c2c1-c1ccc(Cl)cc1 [Example 18, 5-(4-chlorophenyl)-3-[2-(3,3-difluoroazetidin-1-yl)-2-oxoethyl]-6-methyl-3H,4H-thieno[2,3-d]pyrimidin-4-one] | 11%
19 | Cc1nc2scc(-c3ccc(Cl)cc3)c2c(=O)n1CC(=O)N1CC(F)(F)C1 [Example 19, 5-(4-chlorophenyl)-3-[2-(3,3-difluoroazetidin-1-yl)-2-oxoethyl]-2-methyl-3H,4H-thieno[2,3-d]pyrimidin-4-one] | 5%
20 | O=C(CCn1cnc2scc(-c3ccc(Cl)c(C(F)(F)F)c3)c2c1=O)N1CC(F)(F)C1 [Example 20, 5-[4-chloro-3-(trifluoromethyl)phenyl]-3-[3-(3,3-difluoroazetidin-1-yl)-3-oxopropyl]-3H,4H-thieno[2,3-d]pyrimidin-4-one] | −1%
21 | O=C(Cn1c(C(F)(F)F)nc2scc(-c3ccc(Cl)cc3)c2c1=O)N1CC(F)(F)C1 [Example 21, 5-(4-chlorophenyl)-3-[2-(3,3-difluoroazetidin-1-yl)-2-oxoethyl]-2-(trifluoromethyl)-3H,4H-thieno[2,3-d]pyrimidin-4-one] | 0%
